Columns and labels:
Assay in all cases: Bliss excess, mean over the matrix (fraction); higher = more synergy
[1] = tested on: CAMA-1 (Breast Carcinoma)
Method in brief: (§1)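 Cell lines grown in DMEM/F12 or RPMI with 10% FBS were plated in 1536-well plates and held 24 hours at 37°C, 5% CO2 before 72 hours of exposure to two-drug dose matrices, with DMSO typically at 0.2%. CellTiter-Glo 2.0 luminescence gave viability, which was converted to inhibition. Vehicle wells were set to 0 and blank wells to 1. Combination Emax is the second-highest inhibition in the matrix, and Bliss excess is the observed combination effect minus the expected EA + EB − EA·EB, where EA and EB are the single-agent effects.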

[2] = tested on: CHP-212 (Neuroblastoma)
Method in brief: as §1

[3] = tested on: COLO-678 (Colorectal Carcinoma)
Method in brief: as §1

[4] = tested on: DiFi (Colorectal Carcinoma)
Method in brief: as §1

[5] = tested on: EVSA-T (Breast Carcinoma)
Method in brief: as §1

[6] = tested on: HDQ-P1 (Breast Carcinoma)
Method in brief: as §1

[7] = tested on: KM12 (Colorectal Carcinoma)
Method in brief: as §1

[8] = tested on: KYSE-180 (Esophageal Squamous Cell Carcinoma)
Method in brief: as §1

[9] = tested on: L-540 (Hodgkin's Lymphoma)
Method in brief: as §1

[10] = tested on: MEL-JUSO (Melanoma)
Method in brief: as §1

[11] = tested on: MFM-223 (Breast Carcinoma)
Method in brief: as §1

[12] = tested on: MKN28 (Gastric Carcinoma)
Method in brief: as §1

[13] = tested on: NCI-H1792 (Lung Adenocarcinoma)
Method in brief: as §1

[14] = tested on: NCI-H847 (Small Cell Lung Carcinoma)
Method in brief: as §1

[15] = tested on: SW837 (Colorectal Carcinoma)
Method in brief: as §1

[16] = tested on: TC-71 (Ewing's Sarcoma)
Method in brief: as §1

[17] = tested on: TE-6 (Esophageal Squamous Cell Carcinoma)
Method in brief: as §1

[18] = tested on: TOV-112D (Ovarian Carcinoma)
Method in brief: as §1

[19] = tested on: U251 (Low Grade Glioma)
Method in brief: as §1

[20] = tested on: WM-115 (Melanoma)
Method in brief: as §1

Structure (SMILES)	Bliss excess [1]	Bliss excess [2]	Bliss excess [3]	Bliss excess [4]	Bliss excess [5]	Bliss excess [6]	Bliss excess [7]	Bliss excess [8]	Bliss excess [9]	Bliss excess [10]	Bliss excess [11]	Bliss excess [12]	Bliss excess [13]	Bliss excess [14]	Bliss excess [15]	Bliss excess [16]	Bliss excess [17]	Bliss excess [18]	Bliss excess [19]	Bliss excess [20]
CC1(C)CCC(CN2CCN(c3ccc(C(=O)NS(=O)(=O)c4ccc(NCC5CCOCC5)c([N+](=O)[O-])c4)c(Oc4cnc5[nH]ccc5c4)c3)CC2)=C(c2ccc(Cl)cc2)C1 [Venetoclax] + C[C@@H]1COCCN1C2=NC(=NC(=C2)C3(CC3)[S@](=N)(=O)C)C4=C5C=CNC5=NC=C4 [AZD6738] (first compound max 1 µM, 7x7, partner max 10 µM)	-0.105	-0.0419	-0.0293	-0.0183	0.0144	-0.0327	0.0189	-0.0173	0.028	-0.013	-0.0604	-0.009	-0.018	0.0082	-0.003	-0.0299	-0.0127	-0.0251	-0.0405	-0.119
CC1(C)CCC(CN2CCN(c3ccc(C(=O)NS(=O)(=O)c4ccc(NCC5CCOCC5)c([N+](=O)[O-])c4)c(Oc4cnc5[nH]ccc5c4)c3)CC2)=C(c2ccc(Cl)cc2)C1 [Venetoclax] + C[C@@H](Nc1cc(F)cc(F)c1)c1cc(C(=O)N(C)C)cc2c(=O)cc(N3CCOCC3)oc12 [AZD8186] (first compound max 1 µM, 7x7, partner max 3 µM)	-0.0706	-0.0118	-0.0975	-0.021	0.0269	-0.0215	-0.0327	-0.0031	0.027	-0.0487	-0.0187	-0.0248	-0.035	0.106	-0.0419	-0.0381	-0.04	-0.0205	-0.0431	-0.0112
Cc1cc2ncnn2cc1Nc1ncc2c(n1)n(C1CCOCC1)c(=O)n2C [AZD7648] + CCN(CCO)CCCOc1ccc2c(Nc3cc(CC(=O)Nc4cccc(F)c4)[nH]n3)ncnc2c1 [AZD2811] (first compound max 10 µM, 7x7, partner max 1 µM)	-0.0677	-0.0162	-0.0119	0.005	0.0122	-0.0154	0.004	0.0029	0.048	0.0461	0.0257	0.0124	0.0321	-0.0211	0.0018	-0.0301	0.0257	0.0263	-0.0046	0.0205
COc1cc2c(cc1OCCCCCOc1cc3c(cc1OC)C(=O)N1C=C(C)C[C@H]1C=N3)N=C[C@@H]1CC(C)=CN1C2=O [SG3199] + O=C(c1cc(Cc2n[nH]c(=O)c3ccccc23)ccc1F)N1CCN(C(=O)C2CC2)CC1 [Olaparib] (first compound max 0.001 µM, 7x7, partner max 10 µM)	-0.0443	0.0046	-0.0144	-0.0495	-0.0094	-0.035	-0.0301	-0.0177	-0.0272	-0.024	-0.0307	-0.0469	-0.0479	-0.0375	-0.0384	-0.0224	-0.0256	-0.0167	-0.0016	-0.0494
Cc1cc2ncnn2cc1Nc1ncc2c(n1)n(C1CCOCC1)c(=O)n2C [AZD7648] + C[C@@H]1COCCN1C2=NC(=NC(=C2)C3(CC3)[S@](=N)(=O)C)C4=C5C=CNC5=NC=C4 [AZD6738] (first compound max 10 µM, 7x7, partner max 10 µM)	-0.0631	-0.0035	-0.0346	0.0639	0.0622	-0.0229	0.0057	0.0394	-0.0031	0.0289	-0.0127	-0.0081	-0.0047	0.0519	-0.0077	0.041	0.0697	0.0024	0.0581	0.0145
COc1cccc(OCCCN)c1-c1cc(Nc2cnc(C#N)cn2)n[nH]1 [Prexasertib] + C=CCn1c(=O)c2cnc(Nc3ccc(N4CCN(C)CC4)cc3)nc2n1-c1cccc(C(C)(C)O)n1 [AZD1775] (first compound max 1 µM, partner max 1 µM)	0.11	-0.0368	-0.0079	0.0236	0.0197	0.0861	0.0787	0.132	-0.0185	0.0303	0.0825	0.0901	0.0638	0.0809	0.073	0.0949	0.0995	0.137	0.0943	0.0354
CN(CCO)CC[C@H](CSc1ccccc1)Nc1ccc(S(=O)(=O)NC(=O)c2ccc(N3CCC([C@@H](O)c4ccccc4-c4ccc(Cl)cc4)CC3)cc2)cc1S(=O)(=O)C(F)(F)F [AZD4320] + C=CCn1c(=O)c2cnc(Nc3ccc(N4CCN(C)CC4)cc3)nc2n1-c1cccc(C(C)(C)O)n1 [AZD1775] (first compound max 1 µM, partner max 1 µM)	-0.0421	-0.0137	-0.0459	0.007	0.0394	0.0886	-0.0316	0.0258	0.0594	0.042	-0.0103	-0.0545	0.0128	0.0494	-0.0063	0.0339	0.0061	-0.0106	-0.0676	0.0052
Cc1cc2ncnn2cc1Nc1ncc2c(n1)n(C1CCOCC1)c(=O)n2C [AZD7648] + O=C(c1cc(Cc2n[nH]c(=O)c3ccccc23)ccc1F)N1CCN(C(=O)C2CC2)CC1 [Olaparib] (first compound max 10 µM, 7x7, partner max 10 µM)	-0.054	-0.0391	-0.0177	-0.0484	-0.0077	0.0133	-0.035	-0.0406	-0.0352	-0.0264	-0.0131	-0.0411	-0.033	-0.0071	-0.0246	-0.0106	-0.0419	-0.0285	0.0043	-0.0391
COc1cccc(OCCCN)c1-c1cc(Nc2cnc(C#N)cn2)n[nH]1 [Prexasertib] + C[C@@H]1COCCN1C2=NC(=NC(=C2)C3(CC3)[S@](=N)(=O)C)C4=C5C=CNC5=NC=C4 [AZD6738] (first compound max 1 µM, 7x7, partner max 10 µM)	-0.0484	-0.0776	-0.0346	-0.0794	0.0094	0.11	-0.0494	-0.0702	-0.0341	-0.0307	-0.106	0.0579	-0.0129	-0.035	0.0106	-0.0164	0.0669	0.0177	-0.0193	0.0242
CN(CCO)CC[C@H](CSc1ccccc1)Nc1ccc(S(=O)(=O)NC(=O)c2ccc(N3CCC([C@@H](O)c4ccccc4-c4ccc(Cl)cc4)CC3)cc2)cc1S(=O)(=O)C(F)(F)F [AZD4320] + C1CN(CCC1(C(=O)N[C@@H](CCO)C2=CC=C(C=C2)Cl)N)C3=NC=NC4=C3C=CN4 [Capivasertib] (first compound max 1 µM, 7x7, partner max 3 µM)	-0.0365	-0.0667	-0.0741	-0.0475	-0.0161	0.0119	-0.0572	-0.0057	-0.0075	-0.0472	-0.01	-0.0404	-0.0643	0.0226	-0.0453	-0.0699	0.0377	-0.0183	-0.0689	0.0144
COc1cccc(OCCCN)c1-c1cc(Nc2cnc(C#N)cn2)n[nH]1 [Prexasertib] + CN(C)CCCOc1ccc(-c2ccc3ncc4c(c3c2)n(C2CCOCC2)c(=O)n4C)cn1 [AZD0156] (first compound max 1 µM, 7x7, partner max 1 µM)	0.0046	-0.0377	-0.036	-0.0503	-0.0133	0.023	-0.0095	0.0022	0.0019	0.0301	-0.0028	-0.0286	-0.0104	-0.0124	-0.0022	0.026	-0.0081	0.0332	-0.0092	-0.0035
CCN(CCO)CCCOc1ccc2c(Nc3cc(CC(=O)Nc4cccc(F)c4)[nH]n3)ncnc2c1 [AZD2811] + C=CCn1c(=O)c2cnc(Nc3ccc(N4CCN(C)CC4)cc3)nc2n1-c1cccc(C(C)(C)O)n1 [AZD1775] (first compound max 1 µM, partner max 1 µM)	-0.0328	-0.0625	-0.0002	0.0322	-0.0073	-0.0186	-0.0092	0.0089	0.0772	0.0131	0.0277	-0.0954	-0.0328	-0.0091	0.0033	0.0744	-0.0367	0.105	-0.0117	-0.0562
